Measured values from patent US20210307272A1, “USE OF PLANT GROWTH REGULATORS TO ENHANCE ALGAE GROWTH FOR THE PRODUCTION OF ADDED VALUE PRODUCTS” (priority 2009, published 2021).

Legend:
Type in all cases: cell-based
[1] = system: Scenedesmus obliquus; assay: Effect of hormone concentrations on growth rate of Scenedesmus obliquus, heterotrophic; conditions: 48 hours, control 0.35
[2] = system: Chlorella protothecoides; assay: Effect of hormone concentrations on growth rate of Chlorella protothecoides, heterotrophic; conditions: 48 hours, control 1.54
[3] = system: Scenedesmus obliquus; assay: Effect of hormone concentrations on growth rate of Scenedesmus obliquus, photoheterotrophic; conditions: 48 hours, control 0.41
[4] = system: Chlorella protothecoides; assay: Effect of hormone concentrations on growth rate of Chlorella protothecoides, photoheterotrophic; conditions: 48 hours, control 1.05
Protocol: The influence of light exposure during Scenedesmus obliquus and Chlorella protothecoides growth was assessed. The growth rates of both algae were higher in photoheterotrophic growth conditions. The Scenedesmus obliquus growth rate was about 86.7% higher under photoheterotrophic growth. Meanwhile, the Chlorella protothecoides growth rate increased 39.07% when the growth was conducted under photoheterotrophic growth.

[5] = system: Auxenochlorella protothecoides; assay: Auxenochlorella protothecoides culture with growth regulator, dry weight and oil after seven days; conditions: 2 mg/L
Protocol: Auxenochlorella protothecoides was grown in Bristol's medium (see above) amended with 0.1% yeast extract (see above) and 0.5% glucose (control cells). Two other groups were cultured in the same medium with either indole acetic acid (2 mg/L, Cat. No. 12886, Sigma-Aldrich Canada Ltd.) or giberellic acid (2 mg/L, Cat. No. G7645, Sigma-Aldrich Canada Ltd.) added. Dry weights were determined and compared between the culture groups after seven days.

Row | SMILES | growth rate ([1]; 0.01 ng) | growth rate ([1]; 0.1 ng) | growth rate ([1]; 1 ng) | growth rate ([1]; 10 ng) | growth rate ([1]; 100 ng) | growth rate ([2]; 0.01 ng) | growth rate ([2]; 0.1 ng) | growth rate ([2]; 1 ng) | growth rate ([2]; 10 ng) | growth rate ([2]; 100 ng) | growth rate ([3]; 0.01 ng) | growth rate ([3]; 0.1 ng) | growth rate ([3]; 1 ng) | growth rate ([3]; 10 ng) | growth rate ([3]; 100 ng) | growth rate ([4]; 0.01 ng) | growth rate ([4]; 0.1 ng) | growth rate ([4]; 1 ng) | growth rate ([4]; 10 ng) | growth rate ([4]; 100 ng) | also measured
1 | O=C(O)Cc1cccc2ccccc12 [1-Naphthaleneacetic acid] | 0.26 | 0.28 | 0.33 | 0.28 | 0.39 | 1.66 | 1.54 | 1.62 | 1.57 | 1.62 | 0.84 | 0.85 | 0.81 | 0.80 | 0.73 | 1.00 | 1.02 | 1.05 | 1.07 | 1.16 | –
2 | O=C(O)COc1ccc(Cl)cc1Cl [2,4-Dichlorophenoxyacetic, 2,4-dichlorophenoxyacetic acid] | 0.28 | 0.23 | 0.31 | 0.24 | 0.23 | 1.40 | 1.53 | 1.43 | 1.31 | 1.50 | 0.42 | 0.44 | 0.47 | 0.44 | 0.33 | 1.09 | 1.08 | 1.01 | 1.08 | 1.03 | –
3 | c1ccc(CNc2ncnc3nc[nH]c23)cc1 [6-Benzylaminopurine, 6-benzylaminopurine] | 0.28 | 0.32 | 0.39 | 0.36 | 0.33 | 1.48 | 1.54 | 1.50 | 1.52 | 1.46 | 0.46 | 0.37 | 0.47 | 0.47 | 0.52 | 1.00 | 1.12 | 1.07 | 1.04 | 1.08 | –
4 | C=C1C[C@]23C[C@@]1(O)CC[C@H]2[C@@]12C=C[C@H](O)[C@@](C)(C(=O)O1)[C@H]2[C@@H]3C(=O)O [Gibberellic acid] | 0.44 | 0.50 | 0.43 | 0.36 | 0.42 | 1.52 | 1.52 | 1.46 | 1.52 | 1.46 | 0.59 | 0.47 | 0.56 | 0.56 | 0.51 | 1.06 | 1.02 | 1.00 | 1.09 | 1.10 | increase of dry cell mass relative to the control [5]: 20%
5 | O=C(O)Cc1c[nH]c2ccccc12 [Indole-3-acetic acid, indole-3-acetic acid] | 0.23 | 0.36 | 0.42 | 0.47 | 0.41 | 1.62 | 1.61 | 1.49 | 1.60 | 1.60 | 0.42 | 0.47 | 0.49 | 0.49 | 0.62 | 1.06 | 1.05 | 0.97 | 1.13 | 1.02 | increase of dry cell mass relative to the control [5]: 50%; increase of oil production [5]: 15%
6 | c1coc(CNc2ncnc3[nH]cnc23)c1 [Kinetin, kinetin] | 0.28 | 0.26 | 0.36 | 0.31 | 0.28 | 1.60 | 1.50 | 1.44 | 1.60 | 1.58 | 0.57 | 0.73 | 0.92 | 0.37 | 0.36 | 1.08 | 1.10 | 1.02 | 1.18 | 1.19 | –
